± gives the standard deviation of the reports.
Structure (SMILES)	glass transition temperature [°C]
*CCN(*)C(=O)c1ccc(F)cc1F (repeat unit)	108.00
*c1ccc(-c2ccc(-c3cnc4cc(-c5ccc6nc(*)cnc6c5)ccc4n3)cc2)cc1 (repeat unit)	345.50
*Oc1ccc(C2(c3ccc(Oc4nc(*)nc(OC)n4)cc3)CCCCC2)cc1 (repeat unit)	200.00
*CCCCCCCCOc1c(OC)cc(/C=C/c2cc(CCCCCC)c(/C=C/c3cc(OC)c(O*)c(OC)c3)cc2CCCCCC)cc1OC (repeat unit)	21.00
*CCCN(*)C(C)=O (repeat unit)	30.00
*CC(*)CC(C)(C)C (repeat unit)	190.00
*CC(*)C=C (repeat unit) [Poly(1,2-butadiene)]	-6.08 ± 1.3
*CC(*)C(=O)OCC(CC)CCCC (repeat unit) [Poly(2-ethylhexyl acrylate)]	-57.08 ± 7
*C(=O)Nc1ccc(Oc2cccc(Oc3ccc(NC(=O)c4ccc5c(c4)C(=O)N(c4ccc(Oc6cccc(Oc7ccc(N8C(=O)c9ccc(*)cc9C8=O)cc7)c6C#N)cc4)C5=O)cc3)c2)cc1 (repeat unit)	217.00
*CCOCCOC(=O)CCCC(=O)O* (repeat unit)	-55.00
*CC(*)C(=O)OCC(F)(F)F (repeat unit)	3.10
*c1ccc(Oc2cccc(Oc3ccc(N4C(=O)c5ccc(Oc6ccc(Oc7ccc8c(c7)C(=O)N(*)C8=O)cc6)cc5C4=O)cc3)c2)cc1 (repeat unit)	199.00
*Oc1ccc(C(=O)NNC(=O)c2ccc(C(=O)NNC(=O)c3ccc(OC(=O)c4cccc(C(*)=O)c4)cc3)cc2)cc1 (repeat unit)	175.00
*c1ccc2c(c1)C(CCCCCC)(CCCCCC)c1cc(-c3cc(CCCCCCCC)c(*)cc3CCCCCCCC)ccc1-2 (repeat unit)	74.50
*C(=O)Nc1ccc(S(=O)(=O)c2ccc(NC(=O)c3ccc(N4C(=O)c5ccc(*)cc5C4=O)cc3)cc2)cc1 (repeat unit)	252.00
*Oc1ccc(P(C)(=O)c2ccc(Oc3ccc(C(c4ccccc4)(c4ccc(*)cc4)C(F)(F)F)cc3)cc2)cc1 (repeat unit)	229.00
*c1ccc(Oc2ccc3c(c2)C(=O)N(*)C3=O)cc1 (repeat unit)	266.00
*CCCCCC(*)CCCCCCCCCC (repeat unit)	-65.00

Second part, the molecule after the results:

glass transition temperature [°C]	Structure (SMILES)
355.00	*C(=O)Nc1ccc(C(c2ccc(NC(=O)c3ccc(N4C(=O)c5ccc(*)cc5C4=O)cc3C)cc2)(C(F)(F)F)C(F)(F)F)cc1 (repeat unit)
152.42 ± 6.3	*Oc1ccc(C(C)(C)c2ccc(OC(*)=O)cc2)cc1 (repeat unit) [Poly(bisphenol A carbonate)]
45.00	*CCCCCCCCCCCCOC(=O)c1ccc2cc(C(=O)O*)ccc2c1 (repeat unit)
35.00	*CC(*)(C)C(=O)OCC1COCCOCCOCCO1 (repeat unit)
124.00	*CC(*)(CC(=O)OC1CCCCCCC1)C(=O)OC1CCCCCCC1 (repeat unit)
-7.00	*ON(C(F)(F)F)C(F)(F)/C(F)=C(\F)C(*)(F)F (repeat unit)
-18.00	*CC(*)OC(=O)C(F)(F)C(F)(F)C(F)(F)C(F)(F)C(F)(F)C(F)(F)C(F)(F)C(F)(F)C(F)(F)F (repeat unit)
130.50	*CC(*)OC(=O)c1ccc([Si](C)(C)C)cc1 (repeat unit)
120.00	*OC(COC(=O)c1ccc(C(*)=O)c(OC)c1)COc1ccc(/N=N/c2ccc(C#N)cc2)cc1 (repeat unit)
260.00	*c1ccc(C(c2ccc(-c3cc(-c4ccccc4)c4cc(Oc5ccc6nc(*)cc(-c7ccccc7)c6c5)ccc4n3)cc2)(C(F)(F)F)C(F)(F)F)cc1 (repeat unit)

— the PolyMetriX glass transition set
